Experimental data reported in patent publication US11466066B2, “Variants of human BMP7 protein” (ELI LILLY AND COMPANY, priority 2017, dated 2022).
Marks after values point to notes of the source that are not given here.

B1: Human mature BMP7 protein variant F9 (SEQ ID NO: 8): homodimer wherein each monomeric subunit has SEQ ID NO: 8 (Y65G/I86L/F93V/N110G/Y128W), disulfide linked (protein)
chain: STGSKQRSQNRSKTPKNQEALRMANVAENSSSDQRQACKKHELYVSFRDLGWQDWIIAPEGYAAGYCEGECAFPLNSYMNATNHALVQTLVHVINPETVPKPCCAPTQLGAISVLYFDDSSNVILKKWRNMVVRACGCH
modifications: homodimer, disulfide linked

How the values were obtained:
[1] = tested on: MFc7 mouse renal myofibroblasts; assay: Alkaline phosphatase stimulation in MFc7 cells; type: cell-based; conditions: 1 μg/ml pro-BMP7, 1 μM ATRA, 48 hours
Method: 3T3-L1 fibroblasts and MFc7 mouse renal myofibroblasts may be grown essentially as described in Example 2 above. After 48 hours the cells may be washed with PBS prior to the addition of either DMEM/2% dialyzed FBS or OPTI-MEM/2% dialyzed FBS medium containing control vehicle, 1 μg/ml human proBMP7 protein, 1 μM ATRA or a combination of both human BMP7 protein (1 μg/ml) and ATRA (1 μM) may be added for 48 hours. After treatment the cells may be rinsed with PBS and stored at −80° C. for approximately 20 minutes. The cells may be thawed at 37° C. for 30 minutes and 100 μl of PNPP may be added to every well. The plate may be incubated at 37° C. for 1 hour. The absorbance at 405 nm may be read on a plate reader.

[2] = tested on: human articular osteoarthritic (OA) chondrocytes; assay: Proteoglycan synthesis (35S incorporation); type: cell-based; conditions: 7 days
Text: Proteoglycan synthesis in human articular osteoarthritic (OA) chondrocytes is an n vitro model for chondrocyte activity. The effect of human mature BMP7 protein variants may also be evaluated on proteoglycan synthesis m human articular OA chondrocytes in vitro and compared to wild type human mature pro-BMP7. The proteoglycan synthesis may be measured using ^35S incorporation. Arthritic human knee cartilage is obtained from donors at surgery. The cartilage pieces may be finely chopped and chondrocytes may be isolated from the associated matrix by enzymatic digestions. The cartilage may be first digested with 1 mg/ml pronase in DMEM/PRF (phenol red free) media with 5% Fe supplemented calf serum (FCS) and 2% penicillin-streptomycin-antimycotic for 60 minutes followed by overnight digestion with 1 mg/ml collagenase II in DMEM/PRF media with 5% FCS) and 2% penicillin-streptomycin-antimycotic at 37° C. The cells may be washed with DMEM/F-12 media and then resuspended in DMEM/F-12 with 5% FCS and counted with a Coulter counter. The cells may be plated at a density of 30,000 cells/well in 96-well collagen coated CytoStar T plate in growth media containing DMEM, 5% FCS. ITS (insulin, transferin, selenium) and 1% penicillin-streptomycin-antimycotic. After 24 hours, the media may be replaced with 100 μl of growth media containing 10 μCi/ml (1 μCi/well) of ^35S and treated with wild type human pro-BMP7 or a human pro-BMP7 protein variants at various doses. Then the cells may be incubated for approximately 7 days at 37° C. with 5% CO2. At the end of the treatment period the media may be removed, replaced with phosphate buffered saline and ^35S incorporation is counted using a Wallac 1450 MicroBeta TriLux Liquid Scintillation Counter & Luminometer.

[3] = Thermal unfolding assay (circular dichroism); type: physicochemical; conditions: CD at 208 nm; 10 mM citrate, 300 mM NaCl, pH 7.4
Method: The effect of temperature on the conformational stability of human BMP7 protein variants may be followed by circular dichroism (CD) on a Jasco J-810 instrument equipped with a thermoelectric sample compartment. Briefly stated, 0.2-1.0 mg/mL pro-BMP7 may be formulated in storage buffer (10 mM citrate, 300 mM NaCl, pH 7.4) and loaded into a 0.02 cm path-length CD cuvette. The sample may be heated from 20 to 80° C. at a linear rate of 1° C./minute and the resulting CD signal at 208 nm may be recorded every 0.2° C. using a 1 second signal response time. A non-linear fit to equation 1 may be performed by the program JMP (SAS Institute Inc, Cary, N.C.) to obtain the thermal unfolding mid-point (Tm).
[formula] where, Yu and Yf are fit and represent the Y-intercept of the pre- and post-transition baselines, respectively. Mu and Mf are fit and represent the slope of the pre- and post-transition baselines, respectively. Hm and S are fit and represent enthalpy and entropy, respectively. T is the measured temperature in Kelvin units.

[4] = tested on: RAR gamma; assay: RAR gamma protein expression, Western Blot; type: cell-based, mouse; conditions: MFc7 and 3T3-L1 cell lines; 1 μg/mL, 48 hours; Western Blot intensity
Method: (§1) 3T3-L1 fibroblasts and MFc7 mouse renal myofibroblasts may be maintained under routine cell culture conditions in DMEM/10% calf serum medium or OPTI-MEM/10% FBS medium, respectively. The cells may be plated in 10 cm tissue culture plates at a seeding density of 500,000 cells/plate. After 48 hours, the cells may be washed with PBS prior to the addition of either DMEM/2% dialyzed FBS or OPTI-MEM/2% dialyzed FBS medium containing 1 μg/mL human BMP7 protein or 1 μg/mL of a human BMP7 protein variant. The cells may be incubated for 48 hours and then rinsed with ice-cold PBS, and then lysed with Protein Extraction Reagent. Then lysates may be centrifuged at 14,000×g for 15 minutes. A Bradford protein assay may be performed to determine the protein concentration of each lysate. Equivalent amounts of protein (for example, 25 μg) may be resolved by SDS-PAGE and then transferred to nitrocellulose membranes for Western Blot analysis. The membranes may be probed with an anti-RAR alpha antibody and/or an anti-RAR gamma antibody.

[5] = tested on: MFc7 mouse renal myofibroblasts; assay: MFc7 bioassay; type: cell-based; conditions: EC50 of wild type BMP7 protein/EC50 of the variant; multiple amino acid changes (Table 3)
Method: MFc7 mouse renal myofibroblasts (mouse kidney fibroblast cell line) may be maintained under routine cell culture conditions in OPTI-MEM/10% FBS medium. The cells may be plated in 10 cm tissue culture plates at a seeding density of 500,000 cells/plate. After approximately 48 hours, the cells may be washed with phosphate buffered saline (PBS) prior to the addition of OPTI-MEM/2% dialyzed fetal bovine serum (FBS) medium containing 1 μg/ml BMP7 protein or 1 μg/ml of a BMP7 protein variant and incubated for 48 hours. After treatment the cells may be rinsed with PBS and stored at −80° C. for 20 minutes. After thawing the cells at 37° C. for 30 minutes 100 μl of para-nitrophenyl phosphate (PNPP) may be added. The plate may be incubated at 37° C. for 1 hour. The absorbance at 405 nm may be read utilizing a plate reader. The average relative potency (EC50 of wild type BMP7 protein/EC50 of the BMP7 protein variant) of certain human BMP7 protein variants of the present invention may be calculated based on such readings.

[6] = tested on: RAR alpha; assay: RAR alpha protein expression, Western Blot; type: cell-based, mouse; conditions: MFc7 and 3T3-L1 cell lines; 1 μg/mL, 48 hours; Western Blot intensity
Method: as §1

Molecule	fold change in alkaline phosphatase stimulation relative to control vehicle treated cells [1] [fold]	Proteoglycan Synthesis (35S incorporation) ([2]; Treatment (ng) 0.1) [CPMs]	Proteoglycan Synthesis (35S incorporation) ([2]; Treatment (ng) 0.4) [CPMs]	Proteoglycan Synthesis (35S incorporation) ([2]; Treatment (ng) 1.2) [CPMs]	Proteoglycan Synthesis (35S incorporation) ([2]; Treatment (ng) 3.7) [CPMs]	Proteoglycan Synthesis (35S incorporation) ([2]; Treatment (ng) 11) [CPMs]	Proteoglycan Synthesis (35S incorporation) ([2]; Treatment (ng) 33) [CPMs]	Proteoglycan Synthesis (35S incorporation) ([2]; Treatment (ng) 100) [CPMs]	Proteoglycan Synthesis (35S incorporation) ([2]; Treatment (ng) 300)	thermal unfolding mid-point (Tm) [3] [°C]	RAR gamma protein expression [4]	Average Relative Potency [5]	RAR alpha protein expression [6]
Wild type human pro-BMP7: homodimers of wild type human mature BMP7 in a non-covalent complex with wild type human pro-domain [reference compound]	21	679 ± 120	724 ± 120	679 ± 120	666 ± 130	723 ± 72	799 ± 65	1500 ± 309	3325 ± 237^a CPMs	61			
B1											stimulated	69	stimulated
